For two molecules, viability, T/C and IC50 results are on record in PubChem BioAssay AID1963984 (Molecular Pharmacology Branch, DTP, NCI, 2024).

Each structure is given as a SMILES string.

This assay relates to 233499-124-R-J3-PDC spheroids with HUVEC/MSC, viability. Nature of the assay: Anticancer human tumor 233499-124-R-J3-PDC patient-derived colon adenocarcinoma cell line growth inhibition [PI3K]. The following applies: for viability, T/C: stronger effect = lower value. In a few lines:
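Spheroid viability read-out. Co-cultures contained the tumor line plus HUVEC and human MSCs. Each agent was paired with a PI3K inhibitor (inavolisib, alpelisib, duvelisib, copanlisib) across half-log dilutions starting at clinical Cmax, or at 10 microM when Cmax was unknown.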
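Note: spheroids exposed to agents for seven days before readout.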
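Throughout, for viability, T/C: percent viability relative to DMSO vehicle control taken as 100%.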

In general, viability, T/C refers to the result in the treated group divided by that in the control group, in per cent. Broadly, the IC50 is the concentration that inhibits the measured activity by half. For `C=CC(=O)N1CCN(c2nc(=O)n(-c3c(C)ccnc3C(C)C)c3nc(-c4c(O)cccc4F)c(F)cc23)C(C)C1` (configuration not stated), the viability, T/C is 91.7% [middle of 4 runs] (compound 0.0316 µM), 99.3% [middle of 4 runs] (compound 0.1 µM), 113% [middle of 4 runs] (compound 1 µM) and 99.9% [middle of 4 runs] (compound 3.16 µM). Also, where the note is “curve of compound”, the IC50 was > 10 µM.
As for `C[C@@H](NC(=O)c1ncnc(N)c1Cl)c1ncc(C(=O)Nc2cc(C(F)(F)F)c(Cl)cn2)s1` + CC(Nc1ncnc2nc[nH]c12)c1cc2cccc(Cl)c2c(=O)n1-c1ccccc1, the half-maximal inhibitory concentration (IC50) runs as follows: (curve of first compound, second compound 0.0316 µM) > 10 µM; (curve of first compound, second compound 0.1 µM) > 10 µM; (curve of first compound, second compound 0.316 µM) > 10 µM; (curve of first compound, second compound 1 µM) > 10 µM; (curve of first compound, second compound 3.16 µM) > 10 µM; (curve of first compound, second compound 10 µM) > 10 µM. In addition, the viability, T/C (second compound 0.0316 µM, first compound 0.0316 µM) was 110%; the viability, T/C (second compound 0.0316 µM, first compound 0.1 µM) is 105%; the viability, T/C (second compound 0.0316 µM, first compound 0.316 µM) was 109%; the viability, T/C (second compound 0.0316 µM, first compound 1 µM) was 104%; the viability, T/C (second compound 0.0316 µM, first compound 3.16 µM) is 105%; the viability, T/C (second compound 0.0316 µM, first compound 10 µM) was 78.4%. For the same molecule, the viability, T/C was 97.4% (second compound 0.1 µM, first compound 0.0316 µM); 105% (second compound 0.1 µM, first compound 0.1 µM); 116% (second compound 0.1 µM, first compound 0.316 µM); 106% (second compound 0.1 µM, first compound 1 µM); 110% (second compound 0.1 µM, first compound 3.16 µM); 101% (second compound 0.1 µM, first compound 10 µM). The viability, T/C (second compound 0.316 µM, first compound 0.0316 µM) is 109%; the viability, T/C (second compound 0.316 µM, first compound 0.1 µM) is 120%; the viability, T/C (second compound 0.316 µM, first compound 0.316 µM) was 111%; the viability, T/C (second compound 0.316 µM, first compound 1 µM) is 95.4%; the viability, T/C (second compound 0.316 µM, first compound 3.16 µM) was 89.2%; the viability, T/C (second compound 0.316 µM, first compound 10 µM) was 98.5%. The viability, T/C (second compound 1 µM, first compound 0.0316 µM) is 83.3%; the viability, T/C (second compound 1 µM, first compound 0.1 µM) is 92.9%; the viability, T/C (second compound 1 µM, first compound 0.316 µM) is 109%; the viability, T/C (second compound 1 µM, first compound 1 µM) was 116%; the viability, T/C (second compound 1 µM, first compound 3.16 µM) is 111%; the viability, T/C (second compound 1 µM, first compound 10 µM) was 93.7%. For the same molecule, the viability, T/C was 106% (second compound 3.16 µM, first compound 0.0316 µM); 101% (second compound 3.16 µM, first compound 0.1 µM); 97.7% (second compound 3.16 µM, first compound 0.316 µM); 109% (second compound 3.16 µM, first compound 1 µM); 109% (second compound 3.16 µM, first compound 3.16 µM); 95.6% (second compound 3.16 µM, first compound 10 µM). The viability, T/C is, setting by setting: (second compound 10 µM, first compound 0.0316 µM) 87.8%; (second compound 10 µM, first compound 0.1 µM) 90.2%; (second compound 10 µM, first compound 0.316 µM) 101%; (second compound 10 µM, first compound 1 µM) 97.7%; (second compound 10 µM, first compound 3.16 µM) 108%; (second compound 10 µM, first compound 10 µM) 97%.
